Here are results for 5 compounds from patent US20250263396A1, “CRYSTALLINE FORMS OF 3-(5-(2-HYDROXY-2- METHYLPROPOXY)-6-METHYPYRAZIN-2-YL)-1H-INDOLE-7-CARBONITRILE” (NIDO BIOSCIENCES, INC., priority 2024, published 2025).

Data set [1] is described as follows: Exposure to humidity or ambient condition. The class given is physicochemical.
Data set [2] is described as follows: Form change on heating, dehydration or desolvation (TGA, DSC, variable temperature XRPD). The class given is physicochemical. As to conditions: DSC thermogram and VT-XRPD. As for the experimental part:
Relative stability of the anhydrates Form R and Form P was investigated by variable temperature XRPD and competitive equilibration experiments.
Relative stability of the anhydrates Form B, Form X, Form Y and Form C was investigated by variable temperature XRPD. Form B converted to Form X, Form Y and Form C after heating to 150° C., 176° C. and 180° C., respectively.

Data set [3] in a line: Equilibration with solvents. It counts as physicochemical. As for the experimental part:
Obtained suspensions were filtered through a 0.45 μm nylon membrane filter by centrifugation at 14,000 rpm. Solid parts (wet cakes) were investigated by XRPD. For samples with different XRPD patterns, additional analysis including DSC, TGA, ^1H-NMR were performed.
(§1) Obtained suspensions were filtered through a 0.45 μm nylon membrane filter by centrifugation at 14,000 rpm.
as §1

Data set [4] can be described thus: Competitive equilibration experiments. As to conditions: 2-MeTHF.
Method: Relative stability of the anhydrate Forms A, C, H and J was investigated with competitive equilibration experiments.
Relative stability of the anhydrates Forms C, K and L was investigated with competitive equilibration experiments.
Relative stability of the anhydrates Form C and Form P was systematically investigated with competitive equilibration experiments.
About 5 mg of Form C and about 5 mg of Form P were added to 0.25 mL of saturated solutions of selected solvents. Obtained suspensions were stirred at 25° C., 50° C. and 70° C. for 4 days, respectively. Solid parts (wet cakes) were isolated by centrifugation filtration and investigated by XRPD.
About 10 mg of Form C and about 10 mg of Form P were added to 0.5 mL saturated solutions of selected solvents. Obtained suspensions were stirred at 80/C and 90 C, respectively. Solid parts (wet cakes) were be isolated by centrifugation filtration and investigated by XRPD.
About 3 mg of the Form P and 3 mg of the mixture of Form P and Form J were added to 0.2 mL of saturated solutions of selected solvents. Obtained suspensions were stirred at 25° C., 50° C. and 70° C. for 4 days, respectively. Solid parts (wet cakes) were isolated by centrifugation filtration and investigated by XRPD.
About 3 mg of Form P and 3 mg of the physical mixture of Form P and Form R were added to 0.2 mL of saturated solutions of 2-MeTHF. Obtained suspensions were stirred at 25° C., 50° C. and 70° C., respectively. Solid parts (wet cakes) were isolated by centrifugation filtration and investigated by XRPD.
About 1.5 mg of Form P, 1.5 mg of Form X and 1.5 mg Form Y were added to 0.15 mL saturated solution of 2-MeTHF. Obtained suspensions were stirred at 25° C., 50° C. and 70° C., respectively. Solid parts (wet cake) were isolated by centrifugation filtration and investigated by XRPD.
Data set [5] has as its system LNCaP cells expressing ARR2PB-FireflyLuc and CMV-RenillaLuc. As to the kind of experiment: LNCaP ARR2PB-FireflyLuc reporter assay. As to conditions: Homo sapiens, +/−0.5 nM DHT, 48 h at 37° C. The class given is cell-based. As for the experimental part:
LNCaP cells expressing ARR2PB-FireflyLuc and CMV-RenillaLuc were treated with indicated concentrations of the test compound, enzalutamide (negative control), or DHT (positive control)+/−0.5 nM DHT for 48 h at 37° C. […] signals were read with the ImageXpress Micro Confocal System. Remaining activity (antagonist mode) was calculated as % Remaining Activity=100×[(Readsample−LCave)/(HCave−LCave)] where HC is cells treated with 0.5 nM DHT only and LC is cells treated with 10 uM enzalutamide+0.5 nM DHT. Activation (agonist mode) was calculated as % Activation=100×[(ReadSample−LCave)/(HCave−LCave)] where HC is cells treated with 1 uM DHT and LC is cells treated with DMSO. Dose response curves and IC50 values were calculated using non-linear regression analysis in XLfit.

Data set [6] can be described thus: Competitive water activity experiments. The note with it: whole range of water activity (0≤a.w.≤1).
Data set [7] is described as follows: Dry grinding simulation experiments. The class given is physicochemical. The note with it: ground manually with mortar and pestle, 5 min. The method, then:
About 10 mg of Form P was ground manually with a mortar and a pestle for 1, 3 and 5 minutes.
About 10 mg of Form C was ground manually with a mortar and a pestle for 5 minutes.

Data set [8] can be described thus: Wet granulation simulation experiments. It counts as physicochemical. As for the experimental part: Water or ethanol was added drop wise to about 10 mg of Form P until the sample is wetted sufficiently. Wet sample was ground gently with in a mortar and a pestle. Post granulation sample was dried under ambient condition for 10 min.
Water or ethanol was added drop wise to about 10 mg of Form C until the sample is wetted sufficiently. Wet sample was ground gently with in a mortar and a pestle. Post granulation sample was dried under ambient condition for 5 min.

The nature of data set [9]: Form conversion kinetics from Form C to Form P. The class given is physicochemical. The method, then:
To investigate form conversion kinetics from Form C to Form P, equilibration experiments with Form C in pH 1.2 HCl buffer, 2-MeTHF, heptane and water were conducted. In 2-MeTHF, Form C converted to Form P within 2 h at 25° C. In pH 1.2 HCl buffer, Form C converted to Form P after 31 h at 37° C. In heptane, Form C converted to Form P completely after 1 week at 25° C. In water, Form C converted to Form P completely after 4 days at 25° C.

Entries after “also recorded” stand apart in the source; their conditions may differ.

Turning to `Cc1nc(-c2c[nH]c3c(C#N)cccc23)cnc1OCC(C)(C)O` [Form V, 3-(5-(2-hydroxy-2-methylpropoxy)-6-methylpyrazin-2-yl)-1H-indole-7-carbonitrile], the “Time to conversion to Form W” value in [1] (ambient condition (20° C.-27° C., 50% RH-70% RH)) is not above 12 h.
`Cc1nc(-c2c[nH]c3c(C#N)cccc23)cnc1OCC(C)(C)O` [Form K, 3-(5-(2-hydroxy-2-methylpropoxy)-6-methylpyrazin-2-yl)-1H-indole-7-carbonitrile]: in data set [2], the “Form after melting and re-crystallization” value is listed as “converts to Form L”. Also, the “Form after humidity exposure” value in data set [1] (25° C./92% RH for 6 days) is “reverts back to Form B; also recorded: converts to hydrate Form B”.
Turning to `Cc1nc(-c2c[nH]c3c(C#N)cccc23)cnc1OCC(C)(C)O` [Amorphous form, 3-(5-(2-hydroxy-2-methylpropoxy)-6-methylpyrazin-2-yl)-1H-indole-7-carbonitrile], the XRPD after equilibration result is recorded as “Form P” in [3] (2-MeTHF, 25° C.); “Form P” in [3] (2-MeTHF/heptane (v:v = 1:1), 25° C.); “Form P” in data set [3] (2-MeTHF/heptane (v:v = 3:1), 25° C.); “Form P” in [3] (2-Propanol, 25° C.); “Form P” in data set [3] (Acetone, 25° C.); “Form P” in data set [3] (Acetone/water (v:v = 30:70) a.w. = 0.92, 25° C.). Moreover, the XRPD after equilibration entry in data set [3] (Acetonitrile, 25° C.) is “Form P”; in [3] (DMSO/water (v:v = 40:60) a.w. = 0.77, 25° C.), “Form P”; in data set [3] (Ethanol, 25° C.), “Form P”; in data set [3] (Ethanol/water (v:v = 40:60) a.w. = 0.91, 25° C.), “Form P”; in [3] (Ethyl acetate, 25° C.) it was “Form P”; in data set [3] (Isopropyl acetate, 25° C.) it was “Form P”. For the same compound, the XRPD after equilibration result in data set [3] (MEK, 25° C.) is reported as “Form P”; in data set [3] (MTBE, 25° C.), “Form P”; in [3] (Methanol, 25° C.), “Form B”; in data set [3] (THF, 25° C.) it was “Form I”; in [3] (Toluene, 25° C.), “Form C”; in data set [3] (heptane, 25° C.), “Form C”. Besides, the XRPD after equilibration result in data set [3] (pH 1.2 HCl/KCl buffer, 25° C.) is reported as “Form P”; in data set [3] (water, 25° C.) it was “Form P”. For the same compound, the “Form after humidity exposure” value in data set [1] (exposure to high humidity) is listed as “crystallized to Form N”.
In the case of `Cc1nc(-c2c[nH]c3c(C#N)cccc23)cnc1OCC(C)(C)O` [3-(5-(2-hydroxy-2-methylpropoxy)-6-methylpyrazin-2-yl)-1H-indole-7-carbonitrile], the “XRPD after competitive equilibration” value in data set [4] (25° C. for 3 days) is reported as “Form P”; in data set [4] (50° C. for 3 days), “Form P”; in data set [4] (70° C. for 1 week), “Form P”; in [4] (70° C. for 3 days) it was “Form P + one peak”. The compound also showed an IC50 in data set [5] of 50 nM.
Regarding `Cc1nc(-c2c[nH]c3c(C#N)cccc23)cnc1OCC(C)(C)O` [Form C, 3-(5-(2-hydroxy-2-methylpropoxy)-6-methylpyrazin-2-yl)-1H-indole-7-carbonitrile], the “Relative stability in water activity experiments” value in [6] is “stable”. Further, the “Comments (crystallinity)” value is “Crystallinity decreased slightly” in data set [7], “Crystallinity decreased” in data set [8] (granulation solvent Ethanol) and “Crystallinity decreased slightly” in data set [8] (granulation solvent Water). In addition, the XRPD entry in data set [7], in data set [8] (granulation solvent Ethanol) and in data set [8] (granulation solvent Water) was “Form C” throughout. Moreover, the “Time to conversion to Form P” value in data set [9] (2-MeTHF, 25° C.) is recorded as not above 2 h; in data set [9] (pH 1.2 HCl buffer, 37° C.), 31 h. Besides, the “Time to complete conversion to Form P” value is 1 week in data set [9] (heptane, 25° C.) and 4 days in data set [9] (water, 25° C.).
